US7824847B2, “Tissue preservation method with polyoxyethylene/polyoxypropylene copolymer” (Regents of the University of California, priority 2003, dated 2010)

Test system: bovine corneal endothelial cells
Test: Evaluation of the endothelial cell layer in bovine corneas stored in preservation media at 4° C. (Calcein AM viability staining)
Assay type: cell-based
Settings: DMSO at 0.5%
Experimental: Evaluations of the endothelial cell layer in bovine corneas in different media. post-incubation survival utility or usefulness for transplantation is defined as less than 3% dying and less than 1.5% missing. Missing cells leave a gap in the layer; calcein-AM staining for esterase activity is used to determine cell health. Transplant surgeons typically use missing cell counts and morphology alone as the index of health and post-incubation survival utility.
Bovine eyes were obtained from Rancho Veal, Petaluma, Calif. Two to 3 hours elapsed between death of the cattle and excision of the cornea with a 1 to 2 millimeter (mm) scleral rim from the enucleated eyes. […]
The viability of the corneal endothelium was quantified with the vital stain Calcein AM (Molecular Probes, Eugene, Oreg.). The hydrophobic and non-fluorescent Calcein AM readily diffuses across the plasma membrane and into the cytoplasm. […] The bright nuclei are easily counted. […] A Zeiss IM-35 inverted fluorescence microscope (Thornwood, N.Y.) equipped with excitation and emission filters for Green Fluorescent Protein (filter set XF100-2 from Omega Optical, Brattleboro, Vt.) was used to illuminate the half cornea. […]
For analysis, each photograph was overlaid with a sheet of transparency film. A felt-tip lab pen was used to mark cells as they were counted and scored as bright (live), dim (dying), or dark (dead or missing). […]

`C[S+](C)[O-]` [DMSO, dimethylsulfoxide] was tested, and the “effect on corneal endothelial cell survival” value was “no effect”.
